Earlier results, collected in patent US12624058B2, “Promoiety strategy to enhance drug activity” (UNIVERSITY OF SOUTHERN CALIFORNIA, priority 2020, dated 2026).

Tests used:
[1] = tested on: multiple Ad types; details: cell culture; read-out: EC50, replication of multiple Ad types
[2] = tested on: Ad5; details: immunosuppressed Syrian hamster model
[3] = in vivo
[4] = tested on: Ad viremia
[5] = in vivo; remark: listed apart in the source

Compound | EC50 [1] | efficacy against Ad5 replication and pathogenesis [2] | nephrotoxicity [3] | GI side effect ([4]; phase II clinical trial) | reduction of Ad viremia ([4]; preemptive treatment, pediatric and adult patients) | oral bioavailability [5]
CCCCCCCCCCCCCCCCOCCCOP(=O)(O)CO[C@H](CO)Cn1ccc(N)nc1=O [BCV] | ~20 nM | effective | little or no nephrotoxicity | symptomatic GI irritation was observed | reduced Ad viremia in some of these patients however, the result was not statistically significant | 
Nc1ccn(C[C@@H](CO)OCP(=O)(O)O)c(=O)n1 [CDV, (S)-1-(3-hydroxy-2-phosphonomethoxypropyl)cytosine] |  | effective | causes nephrotoxicity |  |  | < 5%
